Patent US7919127B2, “Pulsatilla spp. extracts effective in brain function” (priority 2005, dated 2011)
Where “and” joins values, the source holds several entries; their conditions need not be identical. Equal entries are not always repeated.

What was measured:
[1] = system: α-secretase; assay: Increase of α-secretase activity (sAPPα amount, western blot densitometry, W4 cell line); format: cell-based; conditions: positive control, final concentration 1 mM, W4 cells, negative control average = 100.0
Protocol: To study the effect of 70% methanol solution fraction obtained from Example 2 on the above-mentioned APP process, an experiment was conducted as follows using W4 cell line which produces APP in large amount.
The cells of W4 cell line were treated with 70% methanol solution fraction and then cultured for about 12 hours.

[2] = system: rats treated with scopolamine; assay: Passive avoidance test, scopolamine-induced memory impairment; format: in vivo, rat; conditions: oral, 30 mg/L; untreated control = 100%, scopolamine group = 0%
Excerpt: The experimental device used was a shuttle box 50 cm (W)×15 cm (L)×40 cm (H). The shuttle box was divided into two rooms via a guillotine door, where one room was a light room provided with illumination while the other room was a dark room covered entirely with a black cloth thereby allowing the difference in illuminating effect. First, a rat was placed in the light room and the guillotine door was opened while the light was being turned on. Then, the rat entered the dark room within 20 seconds to seek a dark place by instinct and as soon as the rat entered the dark room the guillotine door was closed. […] The next day, the above trained rats were placed again into the light room with the light on and allowed to enter the dark room. Here, the rats were subject to an electric shock of 0.8 mA for 3 seconds via an electronic grid installed on the bottom of the room. Twenty four hours after the above acquisition trial, the rats were again placed into the light room with the light on and allowed to enter the dark room. Here, the normal rats hesitated to enter the dark room by remembering the electric shock of the previous day. The latency time was measured by setting up the maximum latency time at 300 seconds. […]

| SMILES | Relative Density (sAPPα), Average ([1]; average of 3 trials) | Relative Density (sAPPα) ([1]; individual trials) | prevention of memory impairment [2] [%] |
| --- | --- | --- | --- |
| CCCC(=O)O[C@@H]1[C@@H](C)[C@@]2(O)[C@@H](C=C(CO)C[C@]3(O)C(=O)C(C)=C[C@@H]23)[C@@H]2C(C)(C)[C@]12OC(=O)CCC [PDBu, Phorbol 12,13-dibutyrate] | 289.3 | 226.5 and 314.1 and 327.2 | – |
| Nc1c2c(nc3ccccc13)CCCC2 [tacrine] | – | – | 35 |
